Measurements from patent US9023845B2, “Compositions and methods for treating lysosomal disorders” (priority 2007, dated 2015).
“Also recorded” adds a separate entry of the source.

Experiments:
Fabry mice [1] = settings: mouse, in vivo, ip
Fabry mice [2] = settings: mouse, in vivo
[3] = test system: Gaucher and/or Fabry B-cell lines; assay: Effect on cultured cell GSLs (TLC, orcinol detection); format: cell-based; settings: 3 days, GSL fractions by TLC/orcinol

CCOC/C=C/c1ccc(-c2nc(-c3ccc(NC(C)C)cc3)c(-c3ccc(NC(C)C)cc3)[nH]2)cc1 [Formula 2]
VT1 staining (Fabry mice [1]): decreased VT1 staining | levels of GlcCer and/or LacCer (Fabry mice [1]): increased levels | levels of complex GSLs such as Gb3 (Fabry mice [1]): lower levels | heart Gb3 staining (VT1) (Fabry mice [2]): effective in reducing heart Gb3 staining | liver Gb3 staining (VT1) (Fabry mice [2]): essentially no residual staining for Gb3 within the liver; also recorded: considerably less than in the control group; also recorded: more effective in reducing liver Gb3 staining as compared to mice treated with cyclosporine; also recorded: essentially removed Gb3 from the liver Kupffer cells | Gb3 levels ([3]; 4 μM): decrease | LacCer and GlcCer levels ([3]; 4 μM): increased | complex GSL levels ([3]; 8 μM): significant reduced
